Data on five compounds can be found in patent publication US12186283B2, “Bismuth-thiol compositions and methods of use” (Microbion Corporation, priority 2018, dated 2025).

The test system of experiment [1] is N. gonorrhoeae. Conditions: N. gonorrhoeae MMX 683 (ATCC 49226); cited from earlier work.
For experiment [2], the system named is Clostridium difficile. The settings on record: C. difficile MMX 4381 (ATCC 700057), CC^I; cited from earlier work.
In experiment [3] the test system is Enterococcus spp. (E. faecalis, E. faecium). As to the kind of experiment: Broth microdilution MIC (Example 11). It counts as cell-based. The settings on record: VRE, VRE, LevR, CipR, EryR. In general terms: In broth dilution the organism is exposed to a series of concentrations in liquid medium.
Experiment [4] relates to Burkholderia cepacia complex. Briefly: Checkerboard FIC assay, BisEDT with CF agents (Example 10). It counts as cell-based, Burkholderia spp.
The subject of experiment [5] is Pseudomonas aeruginosa. The settings on record: P. aeruginosa MMX 103 (ATCC 27853); cited from earlier work.
Experiment [6] relates to Escherichia coli. Conditions: E. coli MMX 102 (ATCC 25922); cited from earlier work.
Experiment [7] deals with beta-hemolytic streptococci (S. pyogenes, S. agalactiae). As to the kind of experiment: Broth microdilution MIC (Example 11). It counts as cell-based, Streptococcus pyogenes, Streptococcus agalactiae. The settings on record: read-out: MIC.
Experiment [8] concerns P. aeruginosa. As to the kind of experiment: Checkerboard FIC assay, BisEDT with CF agents (Example 10). The class given is cell-based, Pseudomonas aeruginosa. Conditions: for MICB: Meropenem MIC in combination with BisEDT.
Experiment [9] has as its system S. pneumoniae (pneumococci). Conditions: S. pneumoniae MMX 6837 (ATCC 49619); cited from earlier work.
Experiment [10] concerns Bacteroides fragilis. Conditions: B. fragilis MMX 123 (ATCC 25285); cited from earlier work.
For experiment [11], the system named is Acinetobacter baumannii. As to the kind of experiment: Broth microdilution MIC (Example 11). The class given is cell-based.
In experiment [12] the test system is Staphylococcus aureus (MRSA). As to the kind of experiment: Broth microdilution MIC (Example 11). The class given is cell-based.
Experiment [13] concerns Enterobacter cloacae. Briefly: Broth microdilution MIC (Example 11). The class given is cell-based. Conditions: E. cloacae MMX 5981 (ATCC BAA-2468); NDM-1, LevR, MEMR, CAZR, GmR.
Experiment [14] concerns Pseudomonas aeruginosa. As to the kind of experiment: Broth microdilution MIC (Example 11). The class given is cell-based.
In experiment [15] the test system is Klebsiella pneumoniae. As to the kind of experiment: Broth microdilution MIC (Example 11). The class given is cell-based.
Experiment [16] has as its system Escherichia coli. Briefly: Broth microdilution MIC (Example 11). The class given is cell-based.
For experiment [17], the system named is Staphylococcus aureus (MRSA). Conditions: S. aureus MMX 101 (ATCC 29213); cited from earlier work.
Where [18] appears, read: P. aeruginosa 6322, Meropenem in combination with BisEDT, checkerboard rows C-G.

Converted amounts (≈) assume the structure as drawn. “And” between values parts separate entries of the source, which are not always exact repeats. Identical values can stand only once. Like-named read-outs stand apart in the source and are kept apart here. Some results are limits rather than exact numbers.

With `CO/N=C(\C(=O)N[C@@H]1C(=O)N2C(C(=O)O)=C(CSc3nc(=O)c(=O)[nH]n3C)CS[C@H]12)c1csc(N)n1` [Ceftriaxone], the “MIC, CLSI QC range” value in experiment [1] was “(0.004-0.015) μg/mL”.
For `CCc1c(Cl)c(O)c(Cl)c(O)c1C(=O)O[C@H]1[C@H](O)[C@H](OC)[C@H](OC/C2=C\C=C\C[C@H](O)/C(C)=C/[C@H](CC)[C@@H](O[C@@H]3OC(C)(C)[C@@H](OC(=O)C(C)C)[C@H](O)[C@@H]3O)/C(C)=C/C(C)=C/C[C@@H]([C@@H](C)O)OC2=O)O[C@@H]1C` [Fidaxomicin], the “MIC, CLSI QC range” value in experiment [2] is reported as “(0.06-0.25) pg/mL”.
Consider `C[C@@H](O)[C@H]1C(=O)N2C(C(=O)O)=C(S[C@@H]3CN[C@H](C(=O)N(C)C)C3)[C@H](C)[C@H]12` [Meropenem, reference compound], for which the minimum inhibitory concentration (MIC) in experiment [3] (Enterococcus faecium, E. faecium MMX 485, vanA, read-out: MIC) is greater than 64 µg/mL; in experiment [4] (B. multivorans 1795, Meropenem alone, panel with BisEDT, read-out: Drug B MIC) it was 4 µg/mL; in [7] (S. agalactiae MMX 3741, ERY^R CC^R) it was 0.03 µg/mL (≈ 0.0782 µM); in [7] (S. agalactiae MMX 3743, ERY^R CC^R), 0.06 µg/mL (≈ 0.156 µM); in experiment [7] (S. agalactiae MMX 4077, ERY^R CC^R), 0.06 µg/mL (≈ 0.156 µM); in experiment [7] (S. agalactiae MMX 4079, ERY^R CC^R Pen^R MEM^R), 8 µg/mL (≈ 20.9 µM). The MIC in experiment [7] (S. agalactiae MMX 4086, ERY^R CC^R) is 0.06 µg/mL (≈ 0.156 µM). Besides, the FICB in [4] (B. cenocepacia 548, FIC of Meropenem in combination with BisEDT) is 1; in experiment [4] (B. cenocepacia 813, FIC of Meropenem in combination with BisEDT) it was 1; in [4] (B. cepacia 546, Meropenem FIC in combination with BisEDT, per checkerboard row), 1 and 2; in experiment [4] (B. cepacia 1793, Meropenem FIC in combination with BisEDT, per checkerboard row) it was 2 and 4; in [8] (setting [18]), 1; in experiment [8] (P. aeruginosa 8798, Meropenem FIC in combination with BisEDT, per checkerboard row), 1. Besides, the FICB in experiment [8] (P. aeruginosa 9108, Meropenem FIC in combination with BisEDT, per checkerboard row) is recorded as 1. Besides, the MICB is 4 µg/mL in [4] (B. cenocepacia 548, MIC of Meropenem in combination with BisEDT); 4 µg/mL and 8 µg/mL in [4] (B. cepacia 546, Meropenem MIC in combination with BisEDT, per checkerboard row); 8 µg/mL and 16 µg/mL in [4] (B. cepacia 1793, Meropenem MIC in combination with BisEDT, per checkerboard row); 4 µg/mL in experiment [4] (B. multivorans 1795, MIC of Meropenem in combination with BisEDT); 32 µg/mL in experiment [8] (P. aeruginosa 8798, per checkerboard row); 1 µg/mL in experiment [8] (P. aeruginosa 9108, per checkerboard row). The “CLSI QC range (MIC)” value in experiment [5] is “(0.25-1)”; in experiment [6], “(0.008-0.06) μg/mL”. Also, the “MICB (Drug B concentration in combination)” value in [8] (setting [18]) worked out at 16 µg/mL. Further, in experiment [9], the “MIC, CLSI QC range” value was “(0.06-0.25) μg/mL”.
As for `Cc1ncc([N+](=O)[O-])n1CCO` [Metronidazole], the “MIC, CLSI QC range” value in experiment [10] is reported as “(0.25-1) pg/mL”; in [2], “(0.12-0.5) pg/mL”.
Take Gentamicin: the minimum inhibitory concentration (MIC) in experiment [11] (A. baumannii MMX 2592, MDR, LevR, CipR, MEMR, CAZR, GmR) is greater than 64 µg/mL; in experiment [11] (A. baumannii MMX 2593, MDR, LevR, CipR, MEMR, CAZR, GmR) it was greater than 64 µg/mL; in [11] (A. baumannii MMX 3372, MDR, CipR, MEMI, CAZI) it was 0.5 µg/mL; in experiment [11] (A. baumannii MMX 3373, Sensitive), 0.12 µg/mL; in experiment [11] (A. baumannii MMX 4651 (NCTC 13304), MDR, OXA-27, LevR, CipR, MEMR, CAZR, GmI) it was 8 µg/mL; in experiment [3] (E. faecalis MMX 8960) it was greater than 64 µg/mL. Further, the minimal inhibitory concentration (MIC) is 8 µg/mL in experiment [3] (E. faecalis MMX 8961); greater than 64 µg/mL in experiment [3] (E. faecalis MMX 8962); greater than 64 µg/mL in experiment [3] (E. faecium MMX 485, vanA); greater than 64 µg/mL in [3] (E. faecium MMX 752, vanA); 0.12 µg/mL in [12] (S. aureus MMX 101 (ATCC 29213), QC, MSSA); 0.25 µg/mL in [12] (S. aureus MMX 5373, MRSA, LevR, CipR, CCR, EryR, OxR). For the same compound, the minimal inhibitory concentration (MIC) in [12] (S. aureus MMX 6311, MRSA, LevR, CipR, CCR, EryR, OxR) is 0.25 µg/mL; in [12] (S. aureus MMX 9203, MRSA, LevR, CipR, EryR, OxR) it was 0.12 µg/mL; in [12] (S. aureus MMX 9204, MRSA, LevR, CipR, EryR, OxR), 0.25 µg/mL; in experiment [12] (S. aureus MMX 9205, MRSA, LevR, CipR, CCR, EryR, OxR) it was 0.25 µg/mL; in experiment [13] it was greater than 64 µg/mL; in experiment [14] (P. aeruginosa MMX 103 (ATCC 27853), QC), 1 µg/mL. Further, the MIC in experiment [14] (P. aeruginosa MMX 1381, MDR, LevR, CipR, MEMR, CAZR) was 8 µg/mL; in [14] (P. aeruginosa MMX 2562, MDR, LevR, CipR, MEMR, CAZR) it was 8 µg/mL; in experiment [14] (P. aeruginosa MMX 3991, MDR, LevR, CipR, MEMR, CAZR) it was 4 µg/mL; in [14] (P. aeruginosa MMX 4654, IMP-7, LevR, CipR, MEMR, CAZR), greater than 64 µg/mL; in experiment [14] (P. aeruginosa MMX 4697, VIM-2, LevR, CipR, MEMR, CAZR) it was 4 µg/mL; in experiment [15] (K. pneumoniae MMX 4622, KPC-2, MEMR, CAZR), 0.25 µg/mL. Moreover, the MIC in experiment [15] (K. pneumoniae MMX 4623, KPC-2, MEMR, CAZR, GMR) turned out to be 64 µg/mL; in experiment [15] (K. pneumoniae MMX 4653, KPC-3, LevR, MEMR, CAZR), 1 µg/mL; in experiment [15] (K. pneumoniae MMX 4683, KPC-2, LevR, MEMR, CAZR), 1 µg/mL; in experiment [15] (K. pneumoniae MMX 4684, ESBL, MEMR) it was 0.25 µg/mL; in [15] (K. pneumoniae MMX 4685, ESBL, LevR, MEMR, CAZR) it was 1 µg/mL; in experiment [15] (K. pneumoniae MMX 4694, KPC-3, LevR, MEMR, CAZR), 8 µg/mL. In addition, the MIC in [15] (K. pneumoniae MMX 5979, NDM-1, LevR, MEMR, CAZR, GmR) was greater than 64 µg/mL; in experiment [16] (E. coli MMX 102 (ATCC 25922), QC), 1 µg/mL; in experiment [16] (E. coli MMX 5980 (ATCC BAA-2469), NDM-1, LevR, MEMR, CAZR, GmR), greater than 64 µg/mL; in [16] (E. coli MMX 8423, ESBL, LevR, CAZR, GmR) it was 64 µg/mL; in experiment [16] (E. coli MMX 8424, ESBL, CAZR), 0.25 µg/mL; in experiment [16] (E. coli MMX 8425, ESBL, LevR, CAZR, GmR), greater than 64 µg/mL. Further, the “CLSI QC range (MIC)” value was “(0.5-2)” in [5], “(0.25-1) μg/mL” in [6] and “(0.12-1) μg/mL” in experiment [17].

Usually MIC stands for the lowest concentration that inhibits growth of the organism.
